From patent US4333938A, “Imino derivatives of 5-aminobenzodioxole-1,3 which are useful as medicaments” (Laboratoires Sarget, priority 1979, dated 1982)
Where “and” joins values, the source holds several entries; their conditions need not be identical. Equal entries are not always repeated.

How the values were obtained:
[1] = system: Wistar rat; assay: oral toxicity (mortality) in the Wistar rat; format: in vivo
Protocol: The percentages of mortality produced by the compounds of this invention when administered orally to Swiss mice are shown in Table 1. The animals, free from specific pathogenic organisms were housed in an air conditioned room for 24 to 48 hours before the start of the experiment. They were separated into groups of 5 males and 5 females. The materials were administered to animals which had been fasted for 24 hours by means of a gastric tube in suspension in a 6% thickened julep using a volume equivalent to 0.1 ml per 10 g of body weight. […] They remained under observation for two weeks before being sacrificed and autopsied.
The toxicities of the compounds of Examples 2 and 3 were determined in the Wistar rat. The protocol which was followed was the same as that described for the mice, except that the compounds were administered in a volume equivalent to 0.5 ml per 100 g of body weight of rat. […] The product of Example 3 produced no mortality at 2000 mg/kg and 20% mortality at 3000 mg/kg.

[2] = system: phenylbenzoquinone (PBQ); assay: analgesic activity, phenylbenzoquinone (PBQ) challenge; format: in vivo; settings: male Swiss mouse, oral
Protocol: The analgesic activity was determined in the male Swiss mouse using phenylbenzoquinone (PBQ) as the challenging agent (variation of the method of Siegmund et al, Proc. Soc. Exp. Biol. Med. […], 95, 729-31). […] The ED50 was determined by the method of Lichfield and Wilcoxon.

[3] = system: carageenan-induced edema; assay: inhibition of carrageenan-induced edema; format: in vivo, male Wistar rat; settings: oral
Protocol: The inflammation is produced in the male Wistar rat by injection of 0.1 ml of a 0.5% suspension of carageenan in physiological serum, into the muscular fascia of the metatarsal region of the hind foot of the animal. The test substance is administered orally at the same time as the carageenan or 30 or 60 min before carageenan. The edema is measured by plethysmometry three hours after the adminstration of the carrageenan.

[4] = system: edema produced by serotonin; assay: inhibition of serotonin-induced edema; format: in vivo, Wistar rat; settings: oral, 30 minutes before serotonin
Protocol: In the Wistar rat inflammation is induced by intrapedal injection of 0.1 ml of a 0.02% solution of serotonin in physiological serum. The test substance is administered orally 30 minutes before the serotonin and the edema is measured by plethysmometry one hour after its release.

[5] = system: cotton pellet granulomas; assay: inhibition of cotton pellet granulomas; format: in vivo, male Sprague-Dawley rats; settings: oral, daily for 10 days
Protocol: Two cotton pellets weighing 70 mg were implanted under the back skin of male Sprague-Dawley rats anesthetized with ether. Starting the next day, the compound was administered orally daily for 10 days. The rats were sacrificed and the pellets were removed and weighed before and after drying at 50° C. for 24 hours. The weights used were those obtained after deduction of the weight of the implants. The average of the quantities so calculated was determined for each group and compared to the averages of the control group.

[6] = system: stomachs; assay: ulcerogenic activity; format: in vivo, female Wistar rat; settings: 150 mg/kg daily
Protocol: The ulcerogenic activity was determined in the female Wistar rat using a variation of the procedure described by J. M. Lwoff, J. Pharmacol. 1971, 3, 1, 81-3. The test substance was administered daily for 3 days to the animals maintained on a aqueous diet. The stomachs were removed after 1, 2, and 3 days of treatment and the ulcerations were classified from 0 to 4. The ulceration index is calculated for each group of animals as the product (average of the classes x the percentage of animals afflicted), while distinguishing acute ulcerations from ulcers which were in the process of healing.

[7] = system: blood sugar level; assay: antidiabetic activity, blood sugar level in streptozotocin hyperglycemic rats; format: in vivo, Female rats; set-up: key: NS: the difference between the blood sugar level in the treated animals and the control animals is not significant; the difference is significant by Student's test at p≤0.05; settings: oral
Protocol: Female rats weighing 180-200 grams were given an intraperitoneal dose on day J0 of 100 mg/kg of streptozotocin in a 0.05 M citrate buffer at a pH of 4.5 calculated as 0.5 ml per 100 g of body weight. On day J2 hyperglycemic animals were selected by determining the blood sugar level by the orthotoludine method in a stream continuously removed from the retroorbital sinus. […] On day J3, without previous fasting, the selected animals received the treatment. This consisted of oral administration of the test compound in a 6% aqueous suspension of gum arabic at a volume of 0.5 ml per 100 g of body weight.
The animals were sacrificed one, two, or four hours after the treatment and their blood sugar levels were determined. Each group of animals was compared to a control group of animals which received only the suspension of gum arabic. Metformin was the substance chosen as the control.
The results are given in Table 8 which indicates the percentage of decrease in the blood sugar level produced by the treatment.

[8] = solubility in water; format: physicochemical
[9] = 50 mg/kg, treatment 1 h before sacrificing
[10] = 50 mg/kg, treatment 2 h before sacrificing
[11] = 50 mg/kg, treatment 4 h before sacrificing
[12] = 100 mg/kg, treatment 1 h before sacrificing
[13] = 100 mg/kg, treatment 2 h before sacrificing
[14] = 100 mg/kg, treatment 4 h before sacrificing
[15] = 200 mg/kg, treatment 1 h before sacrificing
[16] = 200 mg/kg, treatment 2 h before sacrificing
[17] = 200 mg/kg, treatment 4 h before sacrificing

For Cc1ccc(C=Nc2ccc3c(c2)OCO3)s1 [Example 2, N-(5-methyl-2-thienylidene)-5-aminobenzodioxole-1,3], the “mortality (in words)” value ([1]; 3000 mg/kg) was “no mortality”, the “% analgesic activity” value ([2]; 100 mg/kg) was 19% and the “% analgesic activity” value ([2]; 200 mg/kg) was 49%. For the same compound, the “% analgesic activity” value ([2]; 250 mg/kg) was 51%, the “% analgesic activity” value ([2]; 300 mg/kg) was 40% and the “% inhibiting activity on carrageenan-induced edema” value (“% inhibiting activity” for short) ([3]; To - 30, 75 mg/kg) was 21%. For the same compound, the “% inhibiting activity” value ([3]; To - 30, 150 mg/kg) was 47%, the “% inhibiting activity” value ([3]; To - 30, 300 mg/kg) was 61% and the “% inhibiting activity” value ([3]; To - 60, 75 mg/kg) was 15%. The “% inhibiting activity” value ([3]; To - 60, 150 mg/kg) was 26%, the “% inhibiting activity” value ([3]; To - 60, 225 mg/kg) was 49% and the “% inhibiting activity” value ([3]; To - 60, 300 mg/kg) was 66%. The “% inhibiting activity” value ([3]; at To, 100 mg/kg) was 30%, the “% inhibiting activity” value ([3]; at To, 150 mg/kg) was 64% and the “% inhibiting activity” value ([3]; at To, 200 mg/kg) was 33%. The “% inhibiting activity” value ([3]; at To, 300 mg/kg) was 59%, the “% inhibitory activity on serotonin edema” value ([4]; 100 mg/kg) was 39% and the “% inhibitory activity on serotonin edema” value ([4]; 200 mg/kg) was 29%. The “% inhibitory activity on serotonin edema” value ([4]; 400 mg/kg) was 37%, the “% inhibition with respect to dry pellets” value ([5]; dose 150) was 5% and the “% inhibition with respect to wet pellets” value ([5]; dose 150) was 12%. For the same compound, the “% inhibition with respect to dry pellets” value ([5]; dose 300) was 23%, the “% inhibition with respect to wet pellets” value ([5]; dose 300) was 17% and the “Ulceration Index, acute” value ([6]; Day 1) was 6. For the same compound, the “Ulceration Index, healing” value ([6]; Day 1) was 0, the “Ulceration Index, acute” value ([6]; Day 2) was 2 and the “Ulceration Index, healing” value ([6]; Day 2) was 6. The “Ulceration Index, acute” value ([6]; Day 3) was 48, the “Ulceration Index, healing” value ([6]; Day 3) was 28 and the “Percentage Decrease in the Blood Sugar” value [7, 9] was 13%. For the same compound, the “Percentage Decrease in the Blood Sugar” value [7, 10] was 22%, the “Percentage Decrease in the Blood Sugar” value [7, 11] was 12% and the “Percentage Decrease in the Blood Sugar” value [7, 12] was 22%. For the same compound, the “Percentage Decrease in the Blood Sugar” value [7, 13] was 32%, the “Percentage Decrease in the Blood Sugar” value [7, 14] was 27% and the “Percentage Decrease in the Blood Sugar” value [7, 15] was 24%. The “Percentage Decrease in the Blood Sugar” value [7, 16] was 35%, the “Percentage Decrease in the Blood Sugar” value [7, 17] was 31% and the solubility in water [8] was “insoluble in water”.
For C(=Nc1ccc2c(c1)OCO2)c1cccnc1 [Example 3, N-(3-pyridylidene)-5-aminobenzodioxole-1,3], the “mortality (in words)” value ([1]; 2000 mg/kg) was “no mortality”, the “% analgesic activity” value ([2]; 50 mg/kg) was 23% and the “% analgesic activity” value ([2]; 100 mg/kg) was 44%. For the same compound, the “% analgesic activity” value ([2]; 200 mg/kg) was 65%, the “% analgesic activity” value ([2]; 300 mg/kg) was 92% and the ED50 ([2]; method of Lichfield and Wilcoxon) was 110 mg/kg. For the same compound, the “% inhibiting activity” value ([3]; To - 30 (30 min before carrageenan), 25 mg/kg) was 34%, the “% inhibiting activity” value ([3]; To - 30, 50 mg/kg) was 41% and 38% and the “% inhibiting activity” value ([3]; To - 30, 75 mg/kg) was 44%. The “% inhibiting activity” value ([3]; To - 30, 100 mg/kg) was 50% and 41%, the “% inhibiting activity” value ([3]; To - 30, 150 mg/kg) was 53% and the “% inhibiting activity” value ([3]; To - 30, 200 mg/kg) was 66%. The “% inhibiting activity” value ([3]; To - 30, 400 mg/kg) was 67% and 72%, the “% inhibiting activity” value ([3]; To - 60 (60 min before carrageenan), 25 mg/kg) was 25% and the “% inhibiting activity” value ([3]; To - 60, 50 mg/kg) was 42%. For the same compound, the “% inhibiting activity” value ([3]; To - 60, 75 mg/kg) was 40%, the “% inhibiting activity” value ([3]; To - 60, 100 mg/kg) was 39% and the “% inhibiting activity” value ([3]; To - 60, 200 mg/kg) was 58%. The “% inhibiting activity” value ([3]; To - 60, 400 mg/kg) was 69%, the “% inhibiting activity” value ([3]; at To, 100 mg/kg) was 57% and 29% and the “% inhibiting activity” value ([3]; at To, 200 mg/kg) was 28% and 36%. The “% inhibiting activity” value ([3]; at To, 400 mg/kg) was 55% and 39%, the “% inhibitory activity on serotonin edema” value ([4]; 100 mg/kg) was 27% and the “% inhibitory activity on serotonin edema” value ([4]; 200 mg/kg) was 21%. The “% inhibitory activity on serotonin edema” value ([4]; 400 mg/kg) was 26%, the “% inhibition with respect to dry pellets” value ([5]; dose 150) was 5% and the “% inhibition with respect to wet pellets” value ([5]; dose 150) was 0%. The “Ulceration Index, acute” value ([6]; Day 1) was 6, the “Ulceration Index, healing” value ([6]; Day 1) was 0 and the “Ulceration Index, acute” value ([6]; Day 2) was 20. For the same compound, the “Ulceration Index, healing” value ([6]; Day 2) was 6, the “Ulceration Index, acute” value ([6]; Day 3) was 33 and the “Ulceration Index, healing” value ([6]; Day 3) was 12. The “Percentage Decrease in the Blood Sugar” value [7, 9] was 16%, the “Percentage Decrease in the Blood Sugar” value [7, 10] was “NS” and the “Percentage Decrease in the Blood Sugar” value [7, 11] was 23%. The “Percentage Decrease in the Blood Sugar” value [7, 12] was “NS”, the “Percentage Decrease in the Blood Sugar” value [7, 13] was 27% and the “Percentage Decrease in the Blood Sugar” value [7, 14] was 29%. The “Percentage Decrease in the Blood Sugar” value [7, 15] was “NS”, the “Percentage Decrease in the Blood Sugar” value [7, 16] was 19% and the “Percentage Decrease in the Blood Sugar” value [7, 17] was 28%. The solubility in water [8] was “insoluble in water”.
